What was measured:
[1] = target: PIM (PIM-1, PIM-2, and/or PIM-3); experiment: PIM-1, PIM-2 and PIM-3 inhibition, biochemical chemiluminescence assays (Kinase Glo, IC50 determination); conditions: Table 1 activity class; PIM refers to PIM-1, PIM-2, and/or PIM-3; read-out: PIM IC50 (Activity B)
CK2 = CK2 (Homo sapiens, UniProt P68400); experiment: CK2 inhibition, biochemical chemiluminescence holoenzyme assay (Kinase Glo, IC50 determination); conditions: Table 1 activity class; symbol given only if active; read-out: CK2 IC50 (Activity C)
Method: Characterization of CK2 Inhibition in a Biochemical Chemiluminesence Assay (IC50 Determination):
The IC50 evaluation of compounds against CK2 was performed in a Chemiluminesence Holoenzyme assay utilizing a Greiner 384-well white medium binding white plate format. […] The assay procedure involves the compound dilution scheme followed by addition of 10 μL of the substrate twice, followed by 10 μL twice of the respective enzyme or buffer to the designated well plates and subsequent pre-incubation of the compounds. Following an incubation period of 150 minutes at ambient temperature (24-27° C.), 10 μL of Kinase Glo (Promega) was added. The luminescence was measured following a Luminescence Protocol on a Victor plate reader.

Sequence of CK2 (P68400 whole entry): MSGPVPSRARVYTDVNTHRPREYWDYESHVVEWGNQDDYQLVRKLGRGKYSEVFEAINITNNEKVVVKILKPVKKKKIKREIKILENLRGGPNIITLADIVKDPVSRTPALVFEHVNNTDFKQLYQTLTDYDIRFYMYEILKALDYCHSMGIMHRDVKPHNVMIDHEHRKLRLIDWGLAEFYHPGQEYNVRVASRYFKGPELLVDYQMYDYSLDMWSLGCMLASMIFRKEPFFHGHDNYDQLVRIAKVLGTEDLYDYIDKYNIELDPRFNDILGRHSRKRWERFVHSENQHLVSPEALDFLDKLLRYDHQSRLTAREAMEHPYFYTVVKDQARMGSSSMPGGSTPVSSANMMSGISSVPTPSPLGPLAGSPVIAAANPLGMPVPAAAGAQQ
Sequence of CK2 (P67870 whole entry partner): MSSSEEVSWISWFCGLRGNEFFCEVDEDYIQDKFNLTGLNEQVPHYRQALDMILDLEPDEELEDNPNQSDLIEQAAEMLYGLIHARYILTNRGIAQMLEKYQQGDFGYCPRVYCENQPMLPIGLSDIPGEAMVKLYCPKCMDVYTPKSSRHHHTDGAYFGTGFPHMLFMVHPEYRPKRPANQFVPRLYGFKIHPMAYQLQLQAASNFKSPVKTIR

SMILES	IC50 [1]	IC50 (CK2)
O=c1[nH]c(-c2cccs2)nc2c1oc1ccc(Br)cc12 [Compound 59, 8-bromo-2-(2-thienyl)[1]benzofuro[3,2-d]pyrimidin-4(3H)-one]	< 10 µM	< 10 µM
COc1ccc(F)c(-c2nc3c(oc4ccc(Br)cc43)c(=O)[nH]2)c1 [Compound 67, 8-bromo-2-[2-fluoro-5-(methyloxy)phenyl][1]benzofuro[3,2-d]pyrimidin-4(3H)-one]	< 10 µM	< 10 µM
O=c1[nH]c(CNc2ccccc2Cl)nc2c1oc1ccc(Br)cc12 [Compound 11, 8-bromo-2-{[(2-chlorophenyl)amino]methyl}[1]benzofuro[3,2-d]pyrimidin-4(3H)-one]	< 10 µM	< 10 µM
CCc1nccn1Cc1nc2c(oc3ccc(Br)cc32)c(=O)[nH]1 [Compound 149, 8-bromo-2-[(2-ethyl-1H-imidazol-1-yl)methyl][1]benzofuro[3,2-d]pyrimidin-4(3H)-one]	< 10 µM	< 10 µM
CN(C)CCN1CCN(c2nc3c(oc4ccc(Br)cc43)c(=O)[nH]2)CC1 [Compound 227, 8-bromo-2-{4-[2-(dimethylamino)ethyl]piperazin-1-yl}[1]benzofuro[3,2-d]pyrimidin-4(3H)-one]	< 10 µM	< 10 µM
O=C(c1ccc2[nH]cnc2c1)N1CCC(c2nc3c(oc4ccc(Br)cc43)c(=O)[nH]2)CC1 [Compound 208, 2-[1-(1H-benzimidazol-5-ylcarbonyl)piperidin-4-yl]-8-bromo[1]benzofuro[3,2-d]pyrimidin-4(3H)-one]	< 10 µM	< 10 µM
CC(=O)N1CCN(Cc2nc3c(oc4ccc(Br)cc43)c(=O)[nH]2)CC1 [Compound 187, 2-[(4-acetylpiperazin-1-yl)methyl]-8-bromo[1]benzofuro[3,2-d]pyrimidin-4(3H)-one]	< 10 µM	< 10 µM
CC(C)CNC(=O)c1cccc(-c2nc3c(oc4ccc(Br)cc43)c(=O)[nH]2)c1 [Compound 101, 3-(8-bromo-4-oxo-3,4-dihydro[1]benzofuro[3,2-d]pyrimidin-2-yl)-N-(2-methylpropyl)benzamide]	< 10 µM	< 10 µM
CN1CCN(c2cccc(CNCc3nc4c(oc5ccc(Br)cc54)c(=O)[nH]3)c2)CC1 [Compound 14, 8-bromo-2-[({[3-(4-methylpiperazin-1-yl)phenyl]methyl}amino)-methyl][1]benzofuro[3,2-d]pyrimidin-4(3H)-one]	< 10 µM	< 10 µM
O=C(c1ccncc1)N1CCC(c2nc3c(oc4ccc(Br)cc43)c(=O)[nH]2)CC1 [Compound 236, 8-bromo-2-[1-(pyridin-4-ylcarbonyl)piperidin-4-yl][1]benzofuro[3,2-d]pyrimidin-4(3H)-one]	< 10 µM	< 10 µM
CN(C)c1ccccc1CNCc1nc2c(oc3ccc(Br)cc32)c(=O)[nH]1 [Compound 10, 8-bromo-2-[({[2-(dimethylamino)phenyl]methyl}amino)methyl][1]benzofuro[3,2-d]pyrimidin-4(3H)-one]	< 10 µM	< 10 µM
COc1ccc(Br)c(-c2nc3c(oc4ccc(Br)cc43)c(=O)[nH]2)c1 [Compound 78, 8-bromo-2-[2-bromo-5-(methyloxy)phenyl][1]benzofuro[3,2-d]pyrimidin-4(3H)-one]	< 10 µM	< 10 µM
CCc1ccccc1-c1nc2c(oc3ccc(Br)cc32)c(=O)[nH]1 [Compound 77, 8-bromo-2-(2-ethylphenyl)[1]benzofuro[3,2-d]pyrimidin-4(3H)-one]	< 10 µM	< 10 µM
CN(C)CCCCNc1ccc(-c2nc3c(oc4ccc(Br)cc43)c(=O)[nH]2)c(Cl)c1 [Compound 136, 8-bromo-2-(2-chloro-4-{[4-(dimethylamino)butyl]amino}phenyl)[1]benzofuro[3,2-d]pyrimidin-4(3H)-one]	< 10 µM	< 10 µM
O=c1[nH]c(-c2ccc(Cl)s2)nc2c1oc1ccc(Br)cc12 [Compound 69, 8-bromo-2-(5-chloro-2-thienyl)[1]benzofuro[3,2-d]pyrimidin-4(3H)-one]	< 10 µM	< 10 µM
COc1cc(Br)c(-c2nc3c(oc4ccc(Br)cc43)c(=O)[nH]2)cc1OC [Compound 66, 8-bromo-2-[2-bromo-4,5-bis(methyloxy)phenyl][1]benzofuro[3,2-d]pyrimidin-4(3H)-one]	< 10 µM	< 10 µM
COc1ccc(-c2nc3c(oc4ccc(Br)cc43)c(=O)[nH]2)c(Cl)c1 [Compound 79, 8-bromo-2-[2-chloro-4-(methyloxy)phenyl][1]benzofuro[3,2-d]pyrimidin-4(3H)-one]	< 10 µM	< 10 µM
O=c1[nH]c(CN2CCC[C@@H](O)C2)nc2c1oc1ccc(Br)cc12 [Compound 402, 8-bromo-2-{[(3R)-3-hydroxypiperidin-1-yl]methyl}[1]benzofuro[3,2-d]pyrimidin-4(3H)-one]	< 10 µM	< 10 µM

Continued, values first:

IC50 [1]	IC50 (CK2)	SMILES
< 10 µM	< 10 µM	COc1cc(C(=O)Nc2ccc(-c3nc4c(oc5ccc(Br)cc54)c(=O)[nH]3)c(Cl)c2)ccn1 [Compound 335, N-[4-(8-bromo-4-oxo-3,4-dihydro[1]benzofuro[3,2-d]pyrimidin-2-yl)-3-chlorophenyl]-2-(methyloxy)pyridine-4-carboxamide]
< 10 µM	< 10 µM	O=C(Nc1ccc(-c2nc3c(oc4ccc(Br)cc43)c(=O)[nH]2)c(Cl)c1)c1cccnc1 [Compound 292, N-[4-(8-bromo-4-oxo-3,4-dihydro[1]benzofuro[3,2-d]pyrimidin-2-yl)-3-chlorophenyl]pyridine-3-carboxamide]
< 10 µM	< 10 µM	CCCCNc1ccc2oc3c(=O)[nH]c(CN4CC[C@H](O)C4)nc3c2c1 [Compound 446, 8-(butylamino)-2-{[(3S)-3-hydroxypyrrolidin-1-yl]methyl}[1]benzofuro[3,2-d]pyrimidin-4(3H)-one]
< 10 µM	< 10 µM	NC[C@H]1CC[C@H](c2nc3c(oc4ccc(Br)cc43)c(=O)[nH]2)CC1 [Compound 376, 2-[trans-4-(Aminomethyl)cyclohexyl]-8-bromo[1]benzofuro[3,2-d]pyrimidin-4(3H)-one]
< 10 µM	< 10 µM	O=c1[nH]c(CN(CCO)CCO)nc2c1oc1ccc(Br)cc12 [Compound 410, 2-{[bis(2-hydroxyethyl)amino]methyl}-8-bromo[1]benzofuro[3,2-d]pyrimidin-4(3H)-one]
< 10 µM	< 10 µM	Cc1cc(C(=O)Nc2ccc(-c3nc4c(oc5ccc(Br)cc54)c(=O)[nH]3)c(Cl)c2)cc(Cl)n1 [Compound 274, N-[4-(8-bromo-4-oxo-3,4-dihydro[1]benzofuro[3,2-d]pyrimidin-2-yl)-3-chlorophenyl]-2-chloro-6-methylpyridine-4-carboxamide]
< 10 µM	< 10 µM	O=C(Nc1ccc(Cl)c(-c2nc3c(oc4ccc(Br)cc43)c(=O)[nH]2)c1)c1cncnc1 [Compound 329, N-[3-(8-bromo-4-oxo-3,4-dihydro[1]benzofuro[3,2-d]pyrimidin-2-yl)-4-chlorophenyl]pyrimidine-5-carboxamide]
< 10 µM	< 10 µM	CN(C)Cc1ccc(-c2nc3c(oc4ccc(Br)cc43)c(=O)[nH]2)cc1 [Compound 358, 8-Bromo-2-{4-[(dimethylamino)methyl]phenyl}[1]benzofuro[3,2-d]pyrimidin-4(3H)-one]
< 10 µM	< 10 µM	Nc1cccc(-c2nc3c(oc4ccc(Br)cc43)c(=O)[nH]2)c1 [Compound 355, 2-(3-Aminophenyl)-8-bromo[1]benzofuro[3,2-d]pyrimidin-4(3H)-one]
< 10 µM	< 10 µM	NCc1nc(-c2nc3c(oc4ccc(Br)cc43)c(=O)[nH]2)cs1 [Compound 352, 2-[2-(Aminomethyl)-1,3-thiazol-4-yl]-8-bromo[1]benzofuro[3,2-d]pyrimidin-4(3H)-one]
< 10 µM	< 10 µM	CN(C)CCCN1CCN(c2nc3c(oc4ccc(Br)cc43)c(=O)[nH]2)CC1 [Compound 246, 8-bromo-2-{4-[3-(dimethylamino)propyl]piperazin-1-yl}[1]benzofuro[3,2-d]pyrimidin-4(3H)-one]
< 10 µM	< 10 µM	O=c1[nH]c(CNCc2ccco2)nc2c1oc1ccc(Br)cc12 [Compound 258, 8-bromo-2-{[(furan-2-ylmethyl)amino]methyl}[1]benzofuro[3,2-d]pyrimidin-4(3H)-one]
< 10 µM	< 10 µM	COc1cc(C(=O)Nc2ccc(Cl)c(-c3nc4c(oc5ccc(Br)cc54)c(=O)[nH]3)c2)ccn1 [Compound 337, N-[3-(8-bromo-4-oxo-3,4-dihydro[1]benzofuro[3,2-d]pyrimidin-2-yl)-4-chlorophenyl]-2-(methyloxy)pyridine-4-carboxamide]
< 10 µM	< 10 µM	O=c1[nH]c(CNCc2ccccn2)nc2c1oc1ccc(Br)cc12 [Compound 254, 8-bromo-2-{[(pyridin-2-ylmethyl)amino]methyl}[1]benzofuro[3,2-d]pyrimidin-4(3H)-one]
< 10 µM	< 10 µM	O=C(Nc1ccc(-c2nc3c(oc4ccc(Br)cc43)c(=O)[nH]2)c(Cl)c1)c1ccoc1 [Compound 341, N-[4-(8-bromo-4-oxo-3,4-dihydro[1]benzofuro[3,2-d]pyrimidin-2-yl)-3-chlorophenyl]furan-3-carboxamide]

— patent US20090247559A1 (Exelixis, Inc., priority 2007, published 2009)
